The results in this text go back to patent publication US8232283B2, “Raf inhibitors” (Forma Therapeutics, Inc., priority 2008, dated 2012).

Some results are limits rather than exact numbers.

One assay has as its system A-431 [B-Raf wildtype]. As to the kind of experiment: Anti-proliferative activity, SRB assay, 72 hours. Type of assay: cell-based. As to conditions: Homo sapiens, read-out: CELLULAR IC50 [μM] A-431 [B-Raf wildtype]. On the procedure:
(§1) Cells were exposed to the test compounds at various concentrations appropriate to determine an IC50, for 72 hours, and cell proliferation was measured using the SRB assay according to Shekan et al (J Natl Cancer Inst (1990) 82, 1107-112) in order to estimate the IC50 values shown in Table 3.
(§2) Briefly, cells were plated in 96 well dishes 24 hours prior to compound addition at the densities specified in Table 11.1.
(§3) The assay was terminated with the addition of ice cold 10% TCA after growth medium has been removed and the plates were incubated over night at 4° C. The plates were then washed 5 times with water and 100 μl of a Sulforhodamine B solution ([…]) was added to each well. The plates were then incubated for 10 minutes at room temperature before removal of unbound dye by washing with 1% acetic acid. The bound dye was solubilized with 10 mM Trizma base and the absorbance read at OD520.
(§4) Inhibitory activity of the compounds was calculated as % inhibition of cell proliferation compared to cells treated with the solvent (DMSO).
For orientation: Sulforhodamine B stains cellular protein and so reports cell mass.

In assay [1] the test system is HT-29 [B-Raf V600E mutant]. As to the kind of experiment: Anti-proliferative activity, SRB assay, 72 hours. Type of assay: cell-based. As to conditions: Homo sapiens, read-out: CELLULAR IC50 [μM] HT-29 [B-Raf V600E mutant]. How it is done:
We observed the surprising finding that compounds of the invention were useful in inhibiting proliferation of HT-29 tumor cells (see Table 3).
as §1, §2, §3, §4

Broadly, the IC50 is the concentration needed to halve the response being measured.

As for `COn1c(=O)c(-c2ccc(NC(=O)c3ccnc(N4CCOCC4)c3)cc2Cl)cc2cnc(NCCN(C)C)nc21` [Compound 54, N-{3-Chloro-4-[2-(2-dimethylamino-ethylamino)-8-methoxy-7-oxo-7,8-dihydro-pyrido[2,3-d]pymidin-6-yl]-phenyl}-2-morpholin-4-yl-isonicotinamide], the IC50 (in the assay with A-431 [B-Raf wildtype]; in assay [1]) was over 10 µM in each case.

Consider `COc1cc(C(F)(F)F)ccc1C(=O)Nc1ccc(-c2cc3cnc(NCCN(C)C)nc3n(OC)c2=O)c(Cl)c1` [Compound 51, N-{3-Chloro-4-[2-(2-dimethylamino-ethylamino)-8-methoxy-7-oxo-7,8-dihydro-pyrido[2,3-d]pyrimidin-6-yl]-phenyl}-2-methoxy-4-trifluoromethyl-benzamide], for which the 50% inhibitory concentration (IC50) in the assay on A-431 [B-Raf wildtype] is under 10 µM; in assay [1], under 5 µM.

With `COn1c(=O)c(-c2cc(NC(=O)Nc3cc(C(F)(F)F)ccc3F)ccc2Cl)cc2cnc(NCCN(C)C)nc21` [Compound 49, 1-{4-Chloro-3-[2-(2-dimethylamino-ethylamino)-8-methoxy-7-oxo-7,8-dihydro-pyrido[2,3-d]pynmidin-6-yl]-phenyl}-3-(2-fluoro-5-trifluoromethyl-phenyl)-urea], the IC50 with A-431 [B-Raf wildtype] was over 10 µM; in assay [1], under 5 µM.

As for `COn1c(=O)c(-c2cc(NC(=O)c3cc(Cl)nc(N(C)C)c3)ccc2Cl)cc2cnc(NCCN(C)C)nc21` [Compound 59, 2-Chloro-N-(4-chloro-3-(2-(2-(dimethylamino)ethylamino)-8-methoxy-7-oxo-7,8-dihydropyrido[2,3-d]pyrimidin-6-yl)phenyl)-6-dimethylamino-isonicotinamide], the IC50 was over 10 µM in the assay with A-431 [B-Raf wildtype] and under 5 µM in assay [1].

As for `COn1c(=O)c(-c2cc(NC(=O)c3ccccc3Cl)ccc2Cl)cc2cnc(NCCN(C)C)nc21` [Compound 36, 2-Chloro-N-{4-chloro-3-[2-(2-dimethylamino-ethylamino)-8-methoxy-7-oxo-7,8-dihydro-pyrido[2,3-d]pyrimidin-6-yl]-phenyl}-benzamide], the IC50 (in the assay on A-431 [B-Raf wildtype]; in assay [1]) was over 10 µM in each case.

`COn1c(=O)c(-c2cc(NC(=O)c3ccc(C(F)(F)F)cc3)ccc2Cl)cc2cnc(NCCN(C)C)nc21` [Compound 34, N-{4-Chloro-3-[2-(2-dimethylamino-ethylamino)-8-methoxy-7-oxo-7,8-dihydro-pyrido[2,3-d]pyrimidin-6-yl]-phenyl}-4-trifluoromethyl-benzamide]: the IC50 is over 10 µM in the assay on A-431 [B-Raf wildtype] and under 10 µM in assay [1].

In the case of `COn1c(=O)c(-c2cc(NC(=O)c3cc(C(F)(F)F)ccc3Cl)ccc2Cl)cc2cnc(NCCN(C)C)nc21` [Compound 29, 2-Chloro-N-{4-chloro-3-[2-(2-dimethylamino-ethylamino)-8-methoxy-7-oxo-7,8-dihydro-pyrido[2,3,-d]pyrimidin-6-yl]-phenyl}-5-trifluoromethyl-benzamide], the IC50 in the assay with A-431 [B-Raf wildtype] is over 10 µM; in assay [1] it was under 10 µM.

For `COn1c(=O)c(-c2cc(NC(=O)c3cc(Cl)cc(Cl)c3)ccc2Cl)cc2cnc(NCCN(C)C)nc21` [Compound 22, 3,5-Dichloro-N-{4-chloro-3-[2-(2-dimethylamino-ethylamino)-8-methoxy-7-oxo-7,8-dihydro-pyrido[2,3-d]pyrimidin-6-yl]-phenyl}-benzamide], the IC50 in the assay with A-431 [B-Raf wildtype] was over 10 µM; in assay [1], under 5 µM.

In the case of `COn1c(=O)c(-c2ccc(NC(=O)c3ccc(Cl)c(OC(F)(F)F)c3)cc2Cl)cc2cnc(NCCN(C)C)nc21` [Compound 52, 4-Chloro-N-{3-chloro-4-[2-(2-dimethylamino-ethylamino)-8-methoxy-7-oxo-7,8-dihydro-pyrido[2,3-d]pyrimidin-6-yl]-phenyl}-3-trifluoromethoxy-benzamide], the concentration for half-maximal inhibition (IC50) was under 10 µM with A-431 [B-Raf wildtype] and under 5 µM in assay [1].

As for `COn1c(=O)c(-c2cc(NC(=O)c3cc(Cl)nc(N4CCCC4)c3)ccc2Cl)cc2cnc(NCCN(C)C)nc21` [Compound 58, 2-Chloro-N-(4-chloro-3-(2-(2-(dimethylamino)ethylamino)-8-methoxy-7-oxo-7,8-dihydropyrido[2,3-d]pyrimidin-6-yl)phenyl)-6-pyrrolidin-1-yl-isonicotinamide], the IC50 is under 10 µM in the assay on A-431 [B-Raf wildtype] and under 5 µM in assay [1].

As to `CCNc1cc(C(=O)Nc2ccc(Cl)c(-c3cc4cnc(NCCN(C)C)nc4n(OC)c3=O)c2)cc(Cl)n1` [Compound 63, 2-Chloro-N-(4-chloro-3-(2-(2-(dimethylamino)ethylamino)-8-methoxy-7-oxo-7,8-dihydropyrido[2,3-d]pyrimidin-6-yl)phenyl)-6-ethylamino-isonicotinamide], the IC50 was over 10 µM in the assay on A-431 [B-Raf wildtype] and under 5 µM in assay [1].

`COn1c(=O)c(-c2cc(NC(=O)c3cc(Cl)nc(NCCN(C)C)c3)ccc2Cl)cc2cnc(NCCN(C)C)nc21` [Compound 65, 2-Chloro-N-(4-chloro-3-(2-(2-(dimethylamino)ethylamino)-8-methoxy-7-oxo-7,8-dihydropyrido[2,3-d]pyrirnidin-6-yl)phenyl)-6-(2-dimethylaminoethylamino)-isonicotinamide]: the half-maximal inhibitory concentration (IC50) was over 10 µM with A-431 [B-Raf wildtype] and under 10 µM in assay [1].

Turning to `COn1c(=O)c(-c2cc(NC(=O)c3cc(Cl)nc(NCc4ccc(N5CCN(C)CC5)cc4)c3)ccc2Cl)cc2cnc(NCCN(C)C)nc21` [Compound 67, 2-Chloro-N-(4-chloro-3-(2-(2-(dimethylamino)ethylamino)-8-methoxy-7-oxo-7,8-dihydropyrido[2,3-d]pyrimidin-6-yl)phenyl)-6-(4-(4-methylpiperazin-1-yl)-benzylamino)-isonicotinamide], the half-inhibitory concentration (IC50) with A-431 [B-Raf wildtype] is under 10 µM; in assay [1], under 5 µM.

For `COn1c(=O)c(-c2ccc(NC(=O)Cc3ccc(Cl)c(C(F)(F)F)c3)cc2Cl)cc2cnc(NCCN(C)C)nc21` [Compound 57, N-{3-Chloro-4-[2-(2-dimethylamino-ethylamino)-8-methoxy-7-oxo-7,8-dihydro-pyrido[2,3-d]pyrimidin-6-yl]-phenyl}-2-(4-chloro-3-trifluoromethyl-phenyl)-acetamide], the IC50 (in the assay on A-431 [B-Raf wildtype]; in assay [1]) was under 10 µM throughout.

As to `COn1c(=O)c(-c2cc(NC(=O)c3cc(C(C)(C)C)n[nH]3)ccc2Cl)cc2cnc(NCCN(C)C)nc21` [Compound 9, 5-tert-Butyl-2H-pyrazole-3-carboxylic acid {4-chloro-3-[2-(2-dimethylamino-ethylamino)-8-methoxy-7-oxo-7,8-dihydro-pyrido[2,3-d]pyrimidin-6-yl]-phenyl}-amide], the IC50 (in the assay on A-431 [B-Raf wildtype]; in assay [1]) was over 10 µM each time.

As to `COn1c(=O)c(-c2cc(NC(=O)c3nc4ccc(F)cc4[nH]3)ccc2Cl)cc2cnc(NCCN(C)C)nc21` [Compound 40, 6-Fluoro-1H-benzoimidazole-2-carboxylic acid {4-chloro-3-[2-(2-dimethylamino-ethylamino)-8-methoxy-7-oxo-7,8-dihydro-pyrido[2,3-d]pyrimidin-6-yl]-phenyl}-amide], the IC50 (in the assay on A-431 [B-Raf wildtype]; in assay [1]) was over 10 µM each time.

For `COn1c(=O)c(-c2cc(NC(=O)c3ccc(C(F)(F)F)cc3F)ccc2Cl)cc2cnc(NCCN(C)C)nc21` [Compound 20], the IC50 (in the assay on A-431 [B-Raf wildtype]; in assay [1]) was over 10 µM in each case.

On to `COn1c(=O)c(-c2ccc(NC(=O)c3ccc(OCc4cccc(F)c4)c(Cl)c3)cc2Cl)cc2cnc(NCCN(C)C)nc21` [Compound 55, 3-Chloro-N-{3-chloro-4-[2-(2-dimethylamino-ethylamino)-8-methoxy-7-oxo-7,8-dihydro-pyrido[2,3-d]pyrimidin-6-yl]-phenyl}-4-(3-fluoro-benzyloxy)-benzamide], for which the IC50 was under 10 µM in the assay on A-431 [B-Raf wildtype] and under 5 µM in assay [1].

Regarding `COn1c(=O)c(-c2cc(NC(=O)Nc3ccc(Oc4ccccc4)cc3)ccc2Cl)cc2cnc(NCCN(C)C)nc21` [Compound 45, 1-{4-Chloro-3-[2-(2-dimethylamino-ethylamino)-8-methoxy-7-oxo-7,8-dihydro-pyrido[2,3-d]pyrimidin-6-yl]-phenyl}-3-(4-phenoxy-phenyl)-urea], the IC50 is under 10 µM with A-431 [B-Raf wildtype] and under 5 µM in assay [1].

Consider `COc1ccc(C(=O)Nc2ccc(Cl)c(-c3cc4cnc(NCCN(C)C)nc4n(OC)c3=O)c2)cc1Cl` [Compound 21, 3-Chloro-N-{4-chloro-3-[2-(2-dimethylamino-ethylamino)-8-methoxy-7-oxo-7,8-dihydro-pyrido[2,3-d]pyrimidin-6-yl]-phenyl}-4-methoxy-benzamide], for which the IC50 was over 10 µM with A-431 [B-Raf wildtype] and under 5 µM in assay [1].

As to `COn1c(=O)c(-c2cc(NC(=O)c3ccccc3)ccc2Cl)cc2cnc(NCCN(C)C)nc21` [Compound 33, N-{4-Chloro-3-[2-(2-dimethylamino-ethylamino)-8-methoxy-7-oxo-7,8-dihydro-pyrido[2,3-d]pyrimidin-6-yl]-phenyl}-benzamide], the IC50 (in the assay with A-431 [B-Raf wildtype]; in assay [1]) was over 10 µM each time.

For `COc1cc(C(F)(F)F)ccc1C(=O)Nc1ccc(Cl)c(-c2cc3cnc(NCCN(C)C)nc3n(OC)c2=O)c1` [Compound 15, N-{4-Chloro-3-[2-(2-dimethylamino-ethylamino)-8-methoxy-7-oxo-7,8-dihydro-pyrido[2,3-d]pyrimidin-6-yl]-phenyl}-2-methoxy-4-trifluoromethyl-benzamide], the IC50 is over 10 µM in the assay with A-431 [B-Raf wildtype] and under 5 µM in assay [1].
